The subject of series [1] is recombinant NL4-3 virus (Renilla luciferase in nef). Put plainly: HIV cell culture assay (antiviral activity, luciferase readout in MT-2 cells). The conditions noted are these: Renilla, NL43. In kind it is cell-based. The protocol: HIV cell culture assay—MT=2 cells, 293T cells and the proviral DNA clone of NL4-3 virus were obtained from the NIH AIDS Research and Reference Reagent Program. MT=2 cells were propagated in RPMI 1640 media supplemented with 10% heat inactivated fetal bovine serum (FBS), […] penicillin G and up to 100 units/mL streptomycin. The 293T cells were propagated in DMEM media supplemented with 10% heat inactivated FBS, […] penicillin G and […] streptomycin. A recombinant NL4-3 proviral clone, in which a section of the nef gene was replaced with the Renilla luciferase gene, was used to make the reference virus used in these studies. The recombinant virus was prepared through transfection of the recombinant NL4-3 proviral clone into 293T cells using Transit-293 Transfection Reagent from Mirus Bio LLC (Madison, Wis.). Supernatent was harvested after 2-3 days and the amount of virus present was titered in MT=2 cells using luciferase enzyme activity as a marker by measuring luciferase enzyme activity. Luciferase was quantitated using the EnduRen Live Cell Substrate from Promega (Madison, Wis.). Antiviral activities of compounds toward the recombinant virus were quantified by measuring luciferase activity in MT=2 cells infected for 4-5 days with the recombinant virus in the presence of serial dilutions of the compound.
The 50% effective concentration (EC50) was calculated by using the exponential form of the median effect equation where (Fa)=1/[1+(ED50/drug conc.)m] (Johnson V A, Byington R T. Infectivity Assay. In Techniques in HIV Research. ed. Aldovini A, Walker B D. 71-76. New York: Stockton Press. 1990). The 50% inhibitory concentration (EC50) was calculated by using the exponential form of the median effect equation where percent inhibition=1/[1+(EC50/drug concentration)m], where m is a parameter that reflects the slope of the concentration-response curve.

A short description of series [2]: Compound cytotoxicity, XTT-based colorimetric assay. The format is cell-based. The conditions noted are these: human; uninfected MT2 cells, day 4, XTT. The protocol:
Compound cytotoxicity and the corresponding CC50 values were determined using the same protocol as described in the antiviral assay except that uninfected cells were used. Cytotoxicity was assessed on day 4 in uninfected MT2 cells by using an XTT (2,3-bis[2-Methoxy-4-nitro-5-sulfophenyl]-2H-tetrazolium-5-carboxyanilide inner salt)-based colorimetric assay (Sigma-Aldrich, St Louis, Mo.).

As a reminder, the EC50 is the concentration that produces a half-maximal response. By CC50 is commonly meant the concentration that lowers cell viability or growth by half. Read a low CC50 as greater toxicity to the cells. As for `Cn1nc(NS(C)(=O)=O)c2c(Cl)ccc(-n3c([C@H](Cc4cc(F)cc(F)c4)NC(=O)Cn4nc(C(F)F)c5c4C(F)(F)[C@@H]4C[C@H]54)nc4cc(-c5ccn(CCC(F)(F)F)n5)ccc4c3=O)c21` (atropisomer, axis not shown; (P)) [Example 50, N—((S)-1-((3P)-3-(4-chloro-1-methyl-3-(methylsulfonamido)-1H-indazol-7-yl)-4-oxo-7-(1-(3,3,3-trifluoropropyl)-1H-pyrazol-3-yl)-3,4-dihydroquinazolin-2-yl)-2-(3,5-difluorophenyl)ethyl)-2-((3bS,4aR)-3-(difluoromethyl)-5,5-difluoro-3b,4,4a,5-tetrahydro-1H-cyclopropa[3,4]cyclopenta[1,2-c]pyrazol-1-yl)acetamide], the EC50 in series [1] was determined as 66 pM. The compound further registered a CC50 at 4 days in series [2] of more than 100000 pM. On the same counts, the results for `Cc1cc(-c2ccc3c(=O)n(-c4ccc(Cl)c5c(NS(C)(=O)=O)nn(C)c45)c([C@H](Cc4cc(F)cc(F)c4)NC(=O)Cn4nc(C(F)F)c5c4C(F)(F)[C@@H]4C[C@H]54)nc3c2)nn1CC(F)(F)C(F)(F)F` (atropisomer, axis not shown; (P)) [Example 60, N—((S)-1-((3P)-3-(4-chloro-1-methyl-3-(methylsulfonamido)-1H-indazol-7-yl)-7-(5-methyl-1-(2,2,3,3,3-pentafluoropropyl)-1H-pyrazol-3-yl)-4-oxo-3,4-dihydroquinazolin-2-yl)-2-(3,5-difluorophenyl)ethyl)-2-((3bS,4aR)-3-(difluoromethyl)-5,5-difluoro-3b,4,4a,5-tetrahydro-1H-cyclopropa[3,4]cyclopenta[1,2-c]pyrazol-1-yl)acetamide] are 210 pM and more than 100000 pM. The corresponding values for `Cn1nc(NS(C)(=O)=O)c2c(Cl)ccc(-n3c([C@H](Cc4cc(F)cc(F)c4)NC(=O)Cn4nc(C(F)F)c5c4C(F)(F)[C@@H]4C[C@H]54)nc4cc(-c5cncc(C(F)F)c5)ccc4c3=O)c21` (atropisomer, axis not shown; (P)) [Example 17, N—((S)-1-((3P)-3-(4-chloro-1-methyl-3-(methylsulfonamido)-1H-indazol-7-yl)-7-(5-(difluoromethyl)pyridin-3-yl)-4-oxo-3,4-dihydroquinazolin-2-yl)-2-(3,5-difluorophenyl)ethyl)-2-((3bS,4aR)-3-(difluoromethyl)-5,5-difluoro-3b,4,4a,5-tetrahydro-1H-cyclopropa[3,4]cyclopenta[1,2-c]pyrazol-1-yl)acetamide] are 78 pM and more than 500000 pM. `Cn1nc(NS(C)(=O)=O)c2c(Cl)ccc(-n3c([C@H](Cc4cc(F)cc(F)c4)NC(=O)Cn4nc(C(F)F)c5c4C(F)(F)[C@@H]4C[C@H]54)nc4cc(-c5ccn(CCCF)n5)ccc4c3=O)c21` (atropisomer, axis not shown; (P)) [Example 51, N—((S)-1-((3P)-3-(4-chloro-1-methyl-3-(methylsulfonamido)-1H-indazol-7-yl)-7-(1-(3-fluoropropyl)-1H-pyrazol-3-yl)-4-oxo-3,4-dihydroquinazolin-2-yl)-2-(3,5-difluorophenyl)ethyl)-2-((3bS,4aR)-3-(difluoromethyl)-5,5-difluoro-3b,4,4a,5-tetrahydro-1H-cyclopropa[3,4]cyclopenta[1,2-c]pyrazol-1-yl)acetamide]: in series [1], the EC50 amounted to 42 pM. For the same compound, in series [2], the CC50 at 4 days is more than 100000 pM. For the compound `Cn1nc(NS(C)(=O)=O)c2c(Cl)ccc(-n3c([C@H](Cc4cc(F)cc(F)c4)NC(=O)Cn4nc(C(F)F)c5c4C(F)(F)[C@@H]4C[C@H]54)nc4cc(-c5cnn(C6CC6)c5)ccc4c3=O)c21` (atropisomer, axis not shown; (P)) [Example 40, N—((S)-1-((3P)-3-(4-chloro-1-methyl-3-(methylsulfonamido)-1H-indazol-7-yl)-7-(1-cyclopropyl-1H-pyrazol-4-yl)-4-oxo-3,4-dihydroquinazolin-2-yl)-2-(3,5-difluorophenyl)ethyl)-2-((3bS,4aR)-3-(difluoromethyl)-5,5-difluoro-3b,4,4a,5-tetrahydro-1H-cyclopropa[3,4]cyclopenta[1,2-c]pyrazol-1-yl)acetamide], the EC50 in series [1] amounted to 82 pM. Also, the CC50 at 4 days in series [2] was more than 100000 pM. In the case of `Cn1nc(NS(C)(=O)=O)c2c(Cl)ccc(-n3c([C@H](Cc4cc(F)cc(F)c4)NC(=O)Cn4nc(C(F)F)c5c4C(F)(F)[C@H]4C[C@@H]54)nc4cc(-c5ccn(CC6CC6)n5)ccc4c3=O)c21` (atropisomer, axis not shown; (P)) [Example 31, N—((S)-1-((3P)-3-(4-chloro-1-methyl-3-(methylsulfonamido)-1H-indazol-7-yl)-7-(1-(cyclopropylmethyl)-1H-pyrazol-3-yl)-4-oxo-3,4-dihydroquinazolin-2-yl)-2-(3,5-difluorophenyl)ethyl)-2-((3bS,4aR)-3-(difluoromethyl)-5,5-difluoro-3b,4,4a,5-tetrahydro-1H-cyclopropa[3,4]cyclopenta[1,2-c]pyrazol-1-yl)acetamide], the EC50 in series [1] is 110 pM. In series [2], this compound gave a CC50 at 4 days of more than 500000 pM.

Take `COCc1ccccc1-c1ccc2c(=O)n(-c3ccc(Cl)c4c(NS(C)(=O)=O)nn(C)c34)c([C@H](Cc3cc(F)cc(F)c3)NC(=O)Cn3nc(C(F)F)c4c3C(F)(F)[C@@H]3C[C@H]43)nc2c1` (atropisomer, axis not shown; (P)) [Example 19, N—((S)-1-((3P)-3-(4-chloro-1-methyl-3-(methylsulfonamido)-1H-indazol-7-yl)-7-(2-(methoxymethyl)phenyl)-4-oxo-3,4-dihydroquinazolin-2-yl)-2-(3,5-difluorophenyl)ethyl)-2-((3bS,4aR)-3-(difluoromethyl)-5,5-difluoro-3b,4,4a,5-tetrahydro-1H-cyclopropa[3,4]cyclopenta[1,2-c]pyrazol-1-yl)acetamide]: in series [1], the EC50 was determined as 160 pM. In series [2], the CC50 at 4 days was more than 500000 pM.

Regarding `CS(=O)(=O)Nc1nn(CCCF)c2c(-n3c([C@H](Cc4cc(F)cc(F)c4)NC(=O)Cn4nc(C(F)F)c5c4C(F)(F)[C@@H]4C[C@H]54)nc4cc(-c5ccnn5CC(F)(F)C(F)F)ccc4c3=O)ccc(Cl)c12` [Example 62, N—((S)-1-((3P)-3-(4-chloro-1-(3-fluoropropyl)-3-(methylsulfonamido)-1H-indazol-7-yl)-4-oxo-7-(1-(2,2,3,3-tetrafluoropropyl)-1H-pyrazol-5-yl)-3,4-dihydroquinazolin-2-yl)-2-(3,5-difluorophenyl)ethyl)-2-((3bS,4aR)-3-(difluoromethyl)-5,5-difluoro-3b,4,4a,5-tetrahydro-1H-cyclopropa[3,4]cyclopenta[1,2-c]pyrazol-1-yl)acetamide], the EC50 in series [1] is 74 pM. Further, the CC50 at 4 days in series [2] was more than 100000 pM. On to `Cn1nc(NS(C)(=O)=O)c2c(Cl)ccc(-n3c([C@H](Cc4cc(F)cc(F)c4)NC(=O)Cn4nc(C(F)F)c5c4C(F)(F)[C@@H]4C[C@H]54)nc4cc(-c5ncc(F)cc5Cl)ccc4c3=O)c21` (atropisomer, axis not shown; (P)) [Example 10, N—((S)-1-((3P)-3-(4-chloro-1-methyl-3-(methylsulfonamido)-1H-indazol-7-yl)-7-(3-chloro-5-fluoropyridin-2-yl)-4-oxo-3,4-dihydroquinazolin-2-yl)-2-(3,5-difluorophenyl)ethyl)-2-((3bS,4aR)-3-(difluoromethyl)-5,5-difluoro-3b,4,4a,5-tetrahydro-1H-cyclopropa[3,4]cyclopenta[1,2-c]pyrazol-1-yl)acetamide], for which the EC50 in series [1] came to 110 pM. Turning to `Cn1nc(NS(C)(=O)=O)c2c(Cl)ccc(-n3c([C@H](Cc4cc(F)cc(F)c4)NC(=O)Cn4nc(C(F)F)c5c4C(F)(F)[C@@H]4C[C@H]54)nc4cc(-c5ccc(F)nc5F)ccc4c3=O)c21` (atropisomer, axis not shown; (P)) [Example 6, N—((S)-1-((3P)-3-(4-chloro-1-methyl-3-(methylsulfonamido)-1H-indazol-7-yl)-7-(2,6-difluoropyridin-3-yl)-4-oxo-3,4-dihydroquinazolin-2-yl)-2-(3,5-difluorophenyl)ethyl)-2-((3bS,4aR)-3-(difluoromethyl)-5,5-difluoro-3b,4,4a,5-tetrahydro-1H-cyclopropa[3,4]cyclopenta[1,2-c]pyrazol-1-yl)acetamide], in series [1], the EC50 amounted to 47 pM.

For the origin of these results see patent US20230013823A1, “INHIBITORS OF HUMAN IMMUNODEFICIENCY VIRUS REPLICATION” (VIV HEALTHCARE UK (No. 5) LIMITED, priority 2019, published 2023).
